According to PMC9234961 (Journal of Medicinal Chemistry, 2022):
Values after ≈ are worked out from the molar mass of the structure shown. Values joined by “and” are separate entries in the source; they are usually repeats but may differ in a detail not shown here. Equal entries are not always repeated. Where two headings read alike, the source gives them in different places.

Key:
human BCL6 BTB domain [1] = target: T1, human BCL6 BTB domain (Homo sapiens, UniProt P41182); experiment: biochemical
[2] = Microsomal clearance assay (HLM); assay type: in vitro ADME; settings: both sexes, pH 7.4; human liver microsomes, 1 μM compound
Method: (§1) 6. Supplementary experimental: in vitro DMPK assays
(§2) 6.1 Microsomal clearance assay
(§3) Microsomal clearance was determined in female CD1 mice, female Sprague–Dawley rats, and mixed gender human liver microsomes obtained from BioIVT (Peterborough, U.K.) following incubation of 1 μM compound at 37 °C in 0.5 mg/mL microsomal protein, 3 mmol/L MgCl2, 1 mmol/L NADPH, 2.5 mmol/L and 10 mmol/L phosphate buffer (pH 7.4) (all purchased from Sigma-Aldrich, Gillingham, U.K). Reactions were started by addition of the cofactors following 10 min preincubation of microsomes with test compound and were terminated at −1, 0, 5, 10, 15, and 30 min with three volumes of ice-cold methanol containing internal standard. Samples were centrifuged at 2800g for 30 min at 4 °C and the supernatants analyzed.
(§4) Control incubations were prepared as above with omission of cofactors. Compound measurements were […]
(§5) separation with a 3 min gradient of 0.1% formic acid in methanol on a Kinetex C18, 50 × 2.1 mm 2.6 μm UPLC column (Phenomenex, Macclesfield, UK). […]

[3] = logD7.4 assay (Chrom log D method); assay type: physicochemical; settings: pH 7.4, read-out: Measured logD7.4
Method: Calibration, validation and in-house compounds were prepared at 1mM in 10% DMSO / 90% Trizma solution (100mM Trizma in 75/25 methanol/water). 3 µL standard injections (with needle wash) of all calibration, validation and in-house samples were made onto a Phenomenex Luna C8 column (3µm, 100 x 4.6 mm, 100A, Phenomenex, Torrence, USA). Chromatographic separation at 30°C was carried out using […]
2 mL/min. The gradient was held at 0:100 water:organic for 0.8 minutes, then returned to the starting conditions of 95:5 water:organic for 0.2 minutes. The column was re-equilibrated for 5 minutes at the […]

[4] = Microsomal clearance assay (MLM); assay type: in vitro ADME; settings: female, CD1, pH 7.4; mouse liver microsomes, 1 μM compound
Method: as §1, §2, §3, §4, §5

in vitro [5] = assay type: in vitro ADME; settings: PAMPA; pH 7.4, 10 µM, 16 h at 30 °C
in vitro [6] = assay type: in vitro ADME; settings: bovine; fraction unbound in OCI-Ly1 DC50 assay medium; read-out: fu,media
NMR solubility assay = assay type: physicochemical; settings: read-out: Aq. Sol.
Method: 4. Supplementary experimental: physicochemical assays
0.5 mM TCEP, 10% D2O) was pipetted into the same well and mixed by up-down pipetting 3 times to create […]
It was then separated by centrifugation (1000 rpm
The plate was then sealed and incubated at room temperature for 20 hours, […]
165 µL of the supernatant was transferred to a 3 mm NMR tube (Bruker, Part No. Z112272) using liquid handler SamplePro Tube SJ S (Bruker). The concentration of the solubilized compound in solubility sample is measured by quantitative 1H-NMR using a single external standard (200 µM caffeine (Sigma, C1778) in PBS (pH 7.4) with 1% DMSO-d6).
The detail of the NMR method is as following: NMR data was collected on a Bruker Avance Neo 600 spectrometer equipped with a 5 mm TCI-CryoProbe. The 1H spectrum was referenced to the internal deuterated solvent. The operating frequency for 1H was 600 MHz. All NMR data were acquired at the […]
1H-NMR spectrum was acquired using a Bruker standard 1D lc1pngppsf2 pulse sequence with 32 scans.
The sweep width was 6.2 ppm with O1P set to 8.8 ppm, and the FID contained 16k time-domain data points. Relaxation delay was set to 20 sec. Water signal was suppressed. […]

[7] = target: endogenous BCL6 in OCI-Ly1 cells (Homo sapiens, UniProt P41182); experiment: cell-based; settings: for MSD degrader assay [OCI-Ly1] Dmax: mean maximal degradation of BCL6; for MSD degrader assay [OCI-LY1] pDC50 mean: mean of replicates; for degradation of BCL6 (in words): OCI-Ly1 MSD assay
[8] = Microsomal clearance assay (RLM); assay type: in vitro ADME; settings: female, Sprague-Dawley, pH 7.4; rat liver microsomes, 1 μM compound
Method: as §1, §2, §3, §4, §5

human BCL6 BTB domain [9] = target: T1, human BCL6 BTB domain; settings: for BCL6 TR-FRET pIC50 mean: mean of replicates
Method: Assays were performed in a 384-well black Proxiplate (Perkin Elmer) containing 1 nM Trx-6xHis-BCL6 (in
anti-6xHis-Terbium cryptate (CisBio Bioassays, France), in assay buffer (25 mM Hepes pH8, 100 mM NaCl,
0.05% Tween20, 0.5 mM TCEP, 0.05% bovine serum albumin). Test compounds in DMSO or DMSO alone
were added to the wells using an ECHO550 acoustic dispenser (Labcyte Inc) to give the appropriate test
concentration in 0.7% v/v DMSO final. After 2 hours incubation at room temperature the plate was read
The % inhibition at each concentration was calculated by normalising FRET ratio to the
appropriate high (DMSO with all reagents) and low (DMSO without BCL6) controls. IC50 values were
determined using GraphPad Prism 6.0 or Dotmatics (Bishops Stortford, UK) software by fitting the
normalised data to a sigmoidal four-parameter logistic fit equation.

[10] = BCL6 TR-FRET IC50 individual replicates, single replicate values
[11] = OCI-Ly1, read-out: MSD degrader assay [OCI-LY1] Dmax individual replicates, single replicate values
[12] = OCI-Ly1, read-out: MSD degrader assay [OCI-Ly1] Dmax, mean maximal degradation of BCL6, OCI-Ly1 cells, 2 h
[13] = read-out: MSD degrader assay [OCI-LY1] DC50 individual replicates, single replicate values
[14] = read-out: MSD degrader assay [OCI-Ly1] DC50, geometric mean, OCI-Ly1 cells, 2 h incubation
[15] = reversed-phase HPLC on Phenomenex Luna C8 column
[16] = kinetic solubility by NMR in HEPES buffer at pH 8, 4% DMSO
[17] = read-out: BCL6 TR-FRET IC50, geometric mean, BCOR-AF633 peptide, 2 h incubation
[18] = read-out: BCL6 TR-FRET IC50 individual replicates, single replicate values

Row | SMILES | IC50 (human BCL6 BTB domain [1]; [10]) | Dmax [7, 11] [%] | Dmax [7, 12] [%] | MSD degrader assay [OCI-Ly1] Dmax ([7]; OCI-Ly1 cells, 2 h) [%] | MSD degrader assay [OCI-LY1] pDC50 mean [7] | DC50 [7, 13] | DC50 [7, 14] | MSD degrader assay [OCI-LY1] Dmax individual replicates ([7]; single replicate values) | chromatographic logD [3, 15] | microsomal CLint at 0.5 h, 1 µM [4] [µL/min/mg] | solubility kinetic at 20 h (NMR solubility assay; [16]) [µM] | degradation of BCL6 (in words) [7] | BCL6 TR-FRET pIC50 mean (human BCL6 BTB domain [9]) | IC50 (human BCL6 BTB domain [9]; [17]) [nM] | IC50 (human BCL6 BTB domain [9]; [18]) | further results
1 | C[C@H]1C[C@@H](O)CN(c2ncc(Cl)c(Nc3ccc4c(c3)n(CCC(C)(C)O)c(=O)n4C)n2)C1 (relative stereo) [compound 5, 5-((5-Chloro-2-(3-hydroxy-5-methylpiperidin-1-yl)pyrimidin-4-yl)amino)-3-(3-hydroxy-3-methylbutyl)-1-methyl-1,3-dihydro-2H-benzo[d]imidazol-2-one] | 101 nM and 99.6 nM and 94.3 nM and 86.2 nM | 91 | 88.8 | 89 | 7.4626 | 66 nM and 18 nM | 35 nM and 34.5 nM | 86.653% |  |  |  |  |  |  |  | IC50 (human BCL6 BTB domain [1]; BCL6 TR-FRET IC50, geometric mean, BCOR-AF633 peptide, 2 h incubation): 95 nM; IC50 (human BCL6 BTB domain [1]; BCL6 TR-FRET pIC50 mean, mean of replicates): 95.1 nM; microsomal CLint at 1 μM [2]: 28 µL/min/mg; chromatographic logD [3]: 2.3; microsomal CLint at 1 μM [4]: 122 µL/min/mg; Papp (in vitro [5]): 23 ×10⁻⁶ cm/s; fraction unbound (in vitro [6]): 0.37; solubility kinetic at 20 h (NMR solubility assay; pH 8, aqueous buffer, kinetic from dmso stock): 40 µM (≈ 19 µg/mL); DC50 ([7]; read-out: Calculated free DC50 [OCI-Ly1], DC50 corrected with fu,media): 12.4 nM; microsomal CLint at 1 μM [8]: 14 µL/min/mg
2 | C[C@H]1CCCN(c2ncc(Cl)c(Nc3ccc4c(c3)c3c(c(=O)n4C)OCC(F)(F)[C@H](C4CC4)N3)n2)C1 [15a, (S)-10-((5-chloro-2-((S)-3-methylpiperidin-1-yl)pyrimidin-4-yl)amino)-2-cyclopropyl-3,3-difluoro-7-methyl-1,2,3,4-tetrahydro-[1,4]oxazepino[2,3-c]quinolin-6(7H)-one] | 48 nM and 29.5 nM and 34.4 nM | 88.4 | 85.5 | 86 | 8.1987 | 16 nM and 1.7 nM and 9.3 nM | 6.3 nM | 83.3% and 85.0% | 4.9 | 568 | 0 | degraders of BCL6 | 7.4377 | 36.5 |  | 
3 | Cn1c(=O)c2c(c3cc(Nc4nc(N5CCC(F)(F)[C@H](CO)C5)ncc4Cl)ccc31)N[C@@H](C1CC1)C(F)(F)CO2 [9b, (S)-10-((5-Chloro-2-((S)-4,4-difluoro-3-(hydroxymethyl)piperidin-1-yl)pyrimidin-4-yl)amino)-2-cyclopropyl-3,3-difluoro-7-methyl-1,2,3,4-tetrahydro-[1,4]oxazepino[2,3-c]quinolin-6(7H)-one] | 3.4 nM and 3.8 nM and 5 nM |  | 44.7 | ~45 |  | > 2000 nM | > 2000 nM | 56.1% and 58.2% and 19.9% | 3.2 | 129 | 6.8 (≈ 3.96 µg/mL) | partial degradation | 8.3907 | 4.1 | 4.2 nM | 
4 | C[C@H]1C[C@@H](N(C)C)CN(c2ncc(Cl)c(Nc3ccc4c(c3)c3c(c(=O)n4C)OCC(F)(F)[C@H](C4CC4)N3)n2)C1 [11a, (S)-10-((5-Chloro-2-((3R,5S)-3-(dimethylamino)-5-methylpiperidin-1-yl)pyrimidin-4-yl)amino)-2-cyclopropyl-3,3-difluoro-7-methyl-1,2,3,4-tetrahydro-[1,4]oxazepino[2,3-c]quinolin-6(7H)-one] | 3.9 nM and 3 nM | 53.6 |  | 56 | 8.0099 | 8.3 nM and 8.9 nM and 12.7 nM | 9.8 nM | 60.7% and 54.9% | 3.3 | 876 | 60 (≈ 34.4 µg/mL) | potently degrading isomer | 8.4757 | 3.3 | 3.2 nM and 3.3 nM | 
5 | Cn1c(=O)c2c(c3cc(Nc4nc(N5CCC(F)(F)[C@@H](O)C5)ncc4Cl)ccc31)N[C@@H](C1CC1)C(F)(F)CO2 (single isomer, unassigned) [8a] | 3.2 nM and 3.3 nM and 4 nM | 60.5 | 59.6 | 60 | 8.1499 | 4.3 nM and 11.6 nM and 7.1 nM | 7.1 nM | 50.7% and 67.5% | 3 | 53 | 11 (≈ 6.26 µg/mL) | potently degrading isomer | 8.4571 | 3.5 |  | 
6 | C[C@@H]1C[C@H](N(C)C)CN(c2ncc(Cl)c(Nc3ccc4c(c3)c3c(c(=O)n4C)OCC(F)(F)[C@H](C4CC4)N3)n2)C1 [11b, (S)-10-((5-Chloro-2-((3S,5R)-3-(dimethylamino)-5-methylpiperidin-1-yl)pyrimidin-4-yl)amino)-2-cyclopropyl-3,3-difluoro-7-methyl-1,2,3,4-tetrahydro-[1,4]oxazepino[2,3-c]quinolin-6(7H)-one] | 3.3 nM and 3 nM and 4.8 nM | < 30 | < 30 | > 30 |  | > 2000 nM | > 2000 nM |  | 3.3 | 681 | 58 (≈ 33.3 µg/mL) | nondegrading isomer | 8.4399 | 3.6 |  | 
7 | CC(=O)N[C@H]1C[C@@H](C)CN(c2ncc(Cl)c(Nc3ccc4c(c3)c3c(c(=O)n4C)OCC(F)(F)[C@H](C4CC4)N3)n2)C1 [10b, N-((3S,5R)-1-(5-Chloro-4-(((S)-2-cyclopropyl-3,3-difluoro-7-methyl-6-oxo-1,2,3,4,6,7-hexahydro-[1,4]oxazepino[2,3-c]quinolin-10-yl)amino)pyrimidin-2-yl)-5-methylpiperidin-3-yl)acetamide] | 3.5 nM and 2.6 nM and 2.5 nM | < 30 | < 30 | > 30 |  | > 2000 nM | > 2000 nM |  | 2.8 | 134 | 15 (≈ 8.82 µg/mL) | nondegrading isomer | 8.5388 | 2.9 | 3 nM | 
